“And” between values parts separate entries of the source, which are not always exact repeats. Equal entries are not always repeated. Marks after values point to notes of the source that are not given here.
System: Male Sprague-Dawley rats
Test: Rat Forced Swim Test (FST)
Assay type: in vivo
Conditions: for overall profile in the Forced Swim Test (conclusion in words): rat, in vivo
[1] = 1 mg/kg p.o., single administration 1 hr before 5 min test
[2] = 3 mg/kg p.o., single administration 1 hr before 5 min test
[3] = 10 mg/kg p.o., single administration 1 hr before 5 min test
[4] = 30 mg/kg p.o., single administration 1 hr before 5 min test
[5] = 3 mg/kg p.o., single administration 24 hours before the test
[6] = 3 mg/kg p.o., single administration 1 hr before 5 min test, listed as EX22
[7] = 10 mg/kg p.o., single administration 1 hr before 5 min test, listed as EX22
[8] = 30 mg/kg p.o., single administration 1 hr before 5 min test, listed as EX22
[9] = 5 mg/kg p.o., single administration 1 hr before 5 min test
[10] = 10 mg/kg p.o., single administration 1 hr before 5 min test, listed as Fluox
[11] = 10 mg/kg p.o., single administration 1 hr before 5 min test, listed as fluoxetine
[12] = 10 mg/kg p.o., single administration 24 hours before the test

In the case of CN(C)c1cc(Nc2ccc(Cl)c(Cl)c2)nc(N2CCN(Cc3ccccc3)CC2)n1 [Example 151], the Climbing [1] was “not significantly altered”, the Diving [1] was “not significantly altered” and the Immobility [1] was “did not significantly alter immobility”. For the same molecule, the Swimming [1] was “significantly increased swimming”, the Climbing [2] was “not significantly altered” and the Diving [2] was “not significantly altered”. For the same molecule, the Immobility [2] was “significantly decreased immobility”, the Swimming [2] was “significantly increased swimming” and the Climbing [3] was “not significantly altered”. The Diving [3] was “not significantly altered”, the Immobility [3] was “significantly decreased immobility” and the Swimming [3] was “significantly increased swimming”. For the same molecule, the “overall profile in the Forced Swim Test (conclusion in words)” value (“overall profile in the Forced Swim Test” below) was “produces behavioral effects in the FST in rats that resemble those of antidepressants”.
With O=C1C(=Nc2ccc(C(F)(F)F)cc2)c2ccccc2N1c1ccccc1 [Example 95, 1-PHENYL-3-[[4-(TRIFLUOROMETHYL)PHENYL]IMINO]-1,3-DIHYDRO-2H-INDOL-2-ONE] the Climbing [2] was “did not significantly alter swimming, climbing, immobility or diving behavior”, the Diving [2] was “did not significantly alter swimming, climbing, immobility or diving behavior” and the Immobility [2] was “did not significantly alter swimming, climbing, immobility or diving behavior”. For the same molecule, the Swimming [2] was “did not significantly alter swimming, climbing, immobility or diving behavior”, the Immobility [3] was “significantly increased rat immobility” and the Swimming [3] was “significantly decreased swim behavior”. The Immobility [4] was “significantly increased rat immobility”, the Swimming [4] was “significantly decreased swim behavior” and the “overall profile in the Forced Swim Test” value was “does not produce antidepressant-like actions in the forced swim test”.
For O=C1/C(=N\c2ccc(Cl)c(Cl)c2)c2ccccc2N1c1ccsc1 [Example 272, (3Z)-3-[(3,4-DICHLOROPHENYL)IMINO]-1-(3-THIENYL)-1,3-DIHYDRO-2H-INDOL-2-ONE], the Climbing [5] was “not significantly altered”, the Diving [5] was “not significantly altered” and the Immobility [5] was “significantly decreased immobility”. The Swimming [5] was “significant increase in swimming behavior” and the “overall profile in the Forced Swim Test” value was “has the profile of an antidepressant-like”.
O=C1C(=Nc2ccc(Br)cc2)c2ccccc2N1c1ccccc1 [Example 98, 3-[(4-BROMOPHENYL)IMINO]-1-PHENYL-1,3-DIHYDRO-2H-INDOL-2-ONE] was tested, and the Climbing [2] was “no significant difference in the number of climbing counts”, the Diving [2] was “not significantly altered” and the Immobility [2] was “significantly decreased immobility”. For the same molecule, the Swimming [2] was “significantly increased swimming”, the Climbing [3] was “no significant difference in the number of climbing counts” and the Diving [3] was “not significantly altered”. For the same molecule, the Immobility [3] was “significantly decreased immobility”, the Swimming [3] was “significantly increased swimming” and the Climbing [4] was “no significant difference in the number of climbing counts”. The Diving [4] was “not significantly altered”, the Immobility [4] was “significantly decreased immobility” and the Swimming [4] was “significantly increased swimming”. For the same molecule, the “overall profile in the Forced Swim Test” value was “produces a profile in the modified Lucki version of the FST resembling that of the clinically established antidepressant fluoxetine”.
In the case of O=C1C(=Nc2cc(Cl)cc(Cl)c2)c2ccccc2N1c1ccccc1 [Example 103, 3-[(3,5-DICHLOROPHENYL)IMINO]-1-PHENYL-1,3-DIHYDRO-2H-INDOL-2-ONE], the Climbing [2] was “not significantly altered”, the Diving [2] was “not significantly altered” and the Immobility [2] was “did not significantly alter immobility”. For the same molecule, the Swimming [2] was “did not significantly alter swimming behavior”, the Climbing [3] was “not significantly altered” and the Diving [3] was “not significantly altered”. The Immobility [3] was “did not significantly alter immobility”, the Swimming [3] was “did not significantly alter swimming behavior” and the Climbing [4] was “not significantly altered”. The Diving [4] was “not significantly altered”, the Immobility [4] was “significant decrease in immobility” and the Swimming [4] was “significantly greater increase in swimming behavior”. For the same molecule, the “overall profile in the Forced Swim Test” value was “has antidepressant-like properties”.
O=C1C(=Nc2cc(Cl)cc(Cl)c2)c2ccccc2N1c1ccccc1 [EX103] was tested, and the Swimming [2] was 13.2 ± 1.9 counts.
For Cc1ccc(Nc2cc(N3CCCCC3)nc(N(C)CCc3ccccc3)n2)cc1 [Example 22], the Climbing [2] was 2.0 ± 0.6 counts, the Diving [2] was “not significantly altered” and the Immobility [2] was 50 ± 0.9 counts. The Swimming [2] was “did not significant alter swimming behavior”, the Diving [6] was 0.4 ± 0.4 counts and the Swimming [6] was 7.6 ± 0.5 counts. For the same molecule, the Climbing [3] was 2.9 ± 0.5 counts, the Diving [3] was “not significantly altered” and the Immobility [3] was “significant decrease in immobility”. The Swimming [3] was “significant increase in swimming”, the Diving [7] was 0.4 ± 0.3 counts and the Immobility [7] was 41 ± 1.3^c counts. The Swimming [7] was 15.3 ± 0.8^g counts, the Climbing [4] was “significant increase in climbing” and the Diving [4] was “not significantly altered”. For the same molecule, the Immobility [4] was “significant decrease in immobility”, the Swimming [4] was “significantly greater increase in swimming behavior” and the Climbing [8] was 5.2 ± 1.0^a counts. For the same molecule, the Diving [8] was 0.0 ± 0.0 counts, the Immobility [8] was 31 ± 2.8^b counts and the Swimming [8] was 23.2 ± 2.0^f counts. The “overall profile in the Forced Swim Test” value was “has antidepressant-like properties”.
Molecule CN(C)c1cc(Nc2ccc(Cl)c(Cl)c2)nc(N2CCN(Cc3ccccc3)CC2)n1 [EX151] has a Climbing [1] of 2.3 ± 0.6 counts, a Diving [1] of 0.2 ± 0.2 counts and an Immobility [1] of 41 ± 2.0 counts. For the same molecule, the Swimming [1] was 16.8 ± 1.4^d counts, the Climbing [2] was 2.4 ± 0.5 counts and the Diving [2] was 0.3 ± 0.2 counts. The Immobility [2] was 38 ± 2.0^a counts, the Swimming [2] was 19.5 ± 1.5^e counts and the Climbing [3] was 2.2 ± 0.5 counts. The Diving [3] was 0.3 ± 0.2 counts, the Immobility [3] was 39 ± 1.8^b counts and the Swimming [3] was 18.9 ± 1.5^e counts.
CNCCC(Oc1ccc(C(F)(F)F)cc1)c1ccccc1 (stereo not shown) [Fluoxetine, fluoxetine, reference compound] was tested, and the Climbing [9] was “not significantly altered”, the Diving [9] was “not significantly altered” and the Immobility [9] was “did not significantly alter immobility”. For the same molecule, the Swimming [9] was “did not significantly alter swimming”, the Climbing (10 mg/kg i.p., single injection 1 h before 5 min test) was “did not significantly alter climbing counts” and the Immobility [10] was 38 ± 2.3^a counts and 34 ± 2.3^b counts and 34 ± 3.0^a counts and 34 ± 3.3^b counts and 38 ± 1.3^b counts and 39 ± 1.7^d counts and 38 ± 2.2 counts. The Swimming [10] was 19.8 ± 1.8^e counts and 21.8 ± 1.4^c counts and 22.8 ± 2.2^c counts and 21.3 ± 1.8^d,e counts and 21.6 ± 1.1^e counts and 19.2 ± 1.2^e counts and 20.0 ± 1.5^c counts, the Diving (10 mg/kg p.o., single administration 1 hr before 5 min test, listed as fluoxet-ine) was “not significantly altered” and the Diving [11] was “not significantly altered”. For the same molecule, the Immobility [11] was “significantly decreased immobility”, the Swimming [11] was “significant increase in swimming behavior” and the Climbing [12] was “not significantly altered”. For the same molecule, the Diving [12] was “not significantly altered”, the Immobility [12] was “significantly decreased immobility” and the Swimming [12] was “significant increase in swimming behavior”.

From patent publication US20040110821A1, “GAL3 receptor antagonists for the treatment of affective disorders” (priority 2002, published 2004)
